From the NIST ThermoML archive (doi:10.1021/je100832h)
± gives the expanded uncertainty stated by the source.

Assay: xn = mol fraction of the nth substance listed
Settings: 101.32 kPa, Liquid, Vibrating tube method

CCCCCCCC [octane] + CCOC(C)=O
Settings	mass density [kg/m3]
291.15 K, x2 = 0	704.13 ± 0.55
291.15 K, x2 = 0.0296	707.15 ± 0.68
291.15 K, x2 = 0.0628	710.48 ± 0.7
291.15 K, x2 = 0.1163	716.36 ± 0.72
291.15 K, x2 = 0.1605	721.46 ± 0.74
291.15 K, x2 = 0.2056	727.01 ± 0.77
291.15 K, x2 = 0.2901	738.23 ± 0.8
291.15 K, x2 = 0.3723	750.35 ± 0.85
291.15 K, x2 = 0.4427	761.76 ± 0.9
291.15 K, x2 = 0.5131	774.24 ± 0.95
291.15 K, x2 = 0.5744	785.94 ± 1
291.15 K, x2 = 0.6332	798.14 ± 1.1
291.15 K, x2 = 0.6886	810.54 ± 1.1
291.15 K, x2 = 0.7414	823.25 ± 1.2
291.15 K, x2 = 0.7945	836.98 ± 1.3
291.15 K, x2 = 0.84	849.83 ± 1.4
291.15 K, x2 = 0.895	866.53 ± 1.4
291.15 K, x2 = 0.9304	878.05 ± 1.5
291.15 K, x2 = 0.9523	885.46 ± 1.6
298.15 K, x2 = 0	698.6 ± 0.54
298.15 K, x2 = 0.0485	703.3 ± 0.68
298.15 K, x2 = 0.0998	708.8 ± 0.71
298.15 K, x2 = 0.1711	716.9 ± 0.74
298.15 K, x2 = 0.2518	727.02 ± 0.77
298.15 K, x2 = 0.3198	736.29 ± 0.81
298.15 K, x2 = 0.3814	745.42 ± 0.85
298.15 K, x2 = 0.4622	758.48 ± 0.88
298.15 K, x2 = 0.4977	764.69 ± 0.94
298.15 K, x2 = 0.5598	776.23 ± 1
298.15 K, x2 = 0.6548	795.8 ± 1.1
298.15 K, x2 = 0.6729	799.8 ± 1.1
298.15 K, x2 = 0.6865	802.9 ± 1.1
298.15 K, x2 = 0.755	819.2 ± 1.2
298.15 K, x2 = 0.7913	828.6 ± 1.2
298.15 K, x2 = 0.8335	840.2 ± 1.3
298.15 K, x2 = 0.8686	850.5 ± 1.4
298.15 K, x2 = 0.9039	861.4 ± 1.5
298.15 K, x2 = 0.9578	879.3 ± 1.5
318.15 K, x2 = 0	682.16 ± 0.53
318.15 K, x2 = 0.034	685.37 ± 0.66
318.15 K, x2 = 0.108	692.6 ± 0.68
318.15 K, x2 = 0.1961	702.19 ± 0.72
318.15 K, x2 = 0.2859	713.24 ± 0.76
318.15 K, x2 = 0.3635	723.8 ± 0.8
318.15 K, x2 = 0.4203	732.23 ± 0.84
318.15 K, x2 = 0.4875	743.04 ± 0.89
318.15 K, x2 = 0.5678	757.24 ± 0.93
318.15 K, x2 = 0.6088	765.1 ± 1
318.15 K, x2 = 0.6633	776.23 ± 1
318.15 K, x2 = 0.7123	786.92 ± 1.1
318.15 K, x2 = 0.764	799.14 ± 1.2
318.15 K, x2 = 0.8086	810.54 ± 1.2
318.15 K, x2 = 0.8487	821.51 ± 1.3
318.15 K, x2 = 0.8943	834.53 ± 1.4
318.15 K, x2 = 0.932	846.34 ± 1.4
318.15 K, x2 = 0.9762	860.93 ± 1.5
328.15 K, x2 = 0	674.15 ± 0.53
328.15 K, x2 = 0.0441	678 ± 0.65
328.15 K, x2 = 0.1138	684.7 ± 0.67
328.15 K, x2 = 0.2084	694.85 ± 0.7
328.15 K, x2 = 0.2915	704.8 ± 0.75
328.15 K, x2 = 0.3741	715.9 ± 0.79
328.15 K, x2 = 0.4415	725.91 ± 0.84
